# Source: patent US5561042A, “Diamine platinum naphthalimide complexes as antitumor agents” (Cancer Therapy and Research Center, priority 1995, dated 1996)
# “Also recorded” adds a separate entry of the source.
# Key:
# [1] = tested on: HT29 Human Colon Carcinoma cell line; assay: In vitro growth inhibition (MTT), HT29 colon carcinoma; format: cell-based; conditions: 6 days
# Description: (§1) P388 murine leukemic cell line was obtained from the DCT Tumor Repository (National Cancer Institute, Frederick Cancer Research and Development, Frederick Md. 21702). HT29 Human Colon Carcinoma cell line was obtained from the American Type Culture Collection (12301 Parklawn Drive, Rockville, Md. 20852). B16 Melanoma cell line was obtained from DuPont Merck Pharmaceutical Company (Glenolden, Pa. 19036). MCF-7 Human Breast Carcinoma cell line was a gift from Dr. K. Osborne (Department of Medicine, The University of Texas Health Science Center at San Antonio, San Antonio, Tex. 78284). All cell lines were incubated at 37° C. in a humidified atmosphere of 5% CO2 -95% air. Murine B16 melanoma cell line was grown in RPMI 1640 medium supplemented with 10% heat-inactivated fetal bovine serum, 2 mM L-glutamine, 50 units/ml penicillin, 50 μg/ml streptomycin, 25 μg/ml gentamycin, 0.75% sodium bicarbonate, 10 mM HEPES buffer (pH 7.4), and 0.06 mg/ml AntiPPLO. Murine P388 leukemic and the human HT-29 colon adenocarcinoma cell lines were maintained in RPMI 1640 medium supplemented with 10% heat-inactivated fetal bovine serum. MCF-7M human breast adenocarcinoma was maintained in IMEM medium supplemented with 5% non heat-inactivated fetal bovine serum and 1 nM insulin.
# (§2) Exponentially growing cells (1-2×10^3 cells, unless specified otherwise) in 0.1 ml medium were seeded on day 0 in a 96-well microtiter plate. On day 1, 0.1 ml aliquots of medium containing graded concentrations of test compounds were added in duplicate to the cell plates. After incubation at 37° C. in a humidified incubator for 3 days (P388, B16) or 6 days (HT-29, MCF-7M), the plates were centrifuged briefly and 100 μl of the growth medium was removed. Cell cultures were incubated with 50 μl of 3-(4,5-dimethylthiazol-2-yl)-2,5-diphenyl-tetrazolium bromide [MTT, 1 mg/ml in Dulbecco's phosphate buffered saline (PBS)] for 4 hr at 37° C. The resulting purple formazan precipitate was solubilized with 200 μl of 0.04N HCl in isopropyl alcohol. Absorbance was monitored in a BioRad Model 3550 Microplate Reader at a test wavelength of 570 nm and a reference wavelength of 630 nm. The absorbance was transferred to a PC 486 computer. The IC50 values were determined by a computer program (EZ-ED50) that fit all of the data to the following four-parameterlogistic equation:
# (§3) Y=((Am -Ao)/(1+(X/IC50)^n))+Ao
# (§4) where Am is the absorbance of control cells, Ao is the absorbance of cells in the presence of highest agent concentration, Y is the observed absorbance, X is the agent concentration, IC50 is the concentration of agent that inhibits the cell growth by 50% of control cells (based on the absorbance) and n is the slope of the curve.
# [2] = tested on: MCF-7 Human Breast Carcinoma cell line; assay: In vitro growth inhibition (MTT), MCF-7 breast carcinoma; format: cell-based; conditions: 6 days
# Description: as §1, §2, §3, §4
# [3] = tested on: SV40 DNA (Form I, negatively supercoiled); assay: SV40 DNA unwinding / mobility by agarose gel electrophoresis; format: binding; conditions: for effect on SV40 DNA conformation (in words): agarose gel electrophoresis, 37° C.
# Description: The model used in this study, negatively supercoiled, closed circular, plasmid SV40 DNA (Form I), undergoes several stages of drug-induced unwinding that are monitored by agarose electrophoresis.
# Central to the understanding of compound 21 action was the ability to assess whether the drug was bound irreversibly (presumably covalently) or reversibly. The system used to extract the reversibly bound drug went through several phases of development. The classic phenol/chloroform mixture cannot completely extract all of the drug. However, the phenol/chloroform mixture effectively extracts the drug in the presence of at least 0.1M NaCl.
# Three different systems, A, B and D were used to probe the mode of interaction of compound 21 with DNA.
# System A: Compound 21 and DNA in TE buffer (10 mM Tris-HCl, pH 7.5 and 1 mM EDTA) without phenol/chloroform.
# System B: Compound 21 and DNA in TE buffer with 0.5M NaCl without phenol/chloroform extraction.
# System D: Compound 21 and DNA in TE buffer with 0.5M NaCl followed by phenol/chloroform extraction.
# In general, SV40 DNA (90% Form I, negatively supercoiled, and 10% Form II, nicked, Gibco BRL) was incubated with graded concentrations of compound 21 at 37° C. for the indicated time periods in the appropriate system. The isolated DNA was then separated by agarose gel electrophoresis (1% Seakem agarose in 1× TAE buffer) in TAE buffer with 80 volts for 2 hours. Gels were stained with ethidium bromide (0.5 μg/ml) for 15 minutes, washed and then recorded with polaroid film while being irradiated with a UV transilluminator (λ=254 nm).
# [4] = tested on: Murine B16 melanoma cell line; assay: In vitro growth inhibition (MTT), B16 melanoma; format: cell-based; conditions: MTT, 3 days
# Description: as §1, §2, §3, §4
substance,measurement,setting,value
"8-(3'-nitro-1',8'-naphthalimide)-3,6-diazaoctylamine dichloroplatinum(II) [Compound 21]",IC50,[1],129 nM
same,IC50,[2],66 nM
same,effect on SV40 DNA conformation (in words),[3],potent distortion of DNA conformation; also recorded: gradually converts the negatively supercoiled SV40 DNA (Form I) to relaxed Form I
same,effect on SV40 DNA conformation (in words),[3]; listed as compound 21,"observed instantly; also recorded: without incubation, the effect of compound 21 on DNA can be completely reversed using System D; also recorded: more of the mobility shift is retained, with an actual increase in drug effect at the full 8 hours; also recorded: no change in DNA mobility shift is observed even under system D at 8 hours; also recorded: can be returned to normal mobility after treatment with thiourea; also recorded: reversal of compound 21 on SV40 DNA by removal of compound 21 with phenol/chloroform extraction in 0.5M NaCl; also recorded: no change in mobility after phenol/chloroform, 0.5M NaCl extraction"
same,decrease of the concentration at which form I and II comigrate,[3]; from time zero to 8 hours,2 fold
same,time to plateau of irreversible effect on DNA conformation,[3]; time course studies,6 to 8 h
same,IC50,[4],385 nM
